Data taken from ChEMBL document CHEMBL3885881, “DrugMatrix”.
Values joined by “and” are separate entries in the source; they are usually repeats but may differ in a detail not shown here. Identical values can stand only once.

Species: Rattus norvegicus
Experiment: DrugMatrix - Regimen: Daily Repeat
Format: toxicity, organism-based, Sprague-Dawley
Design: regimen Daily Repeat, gender Male, age 6-8 weeks
Conditions: in vivo, iv; for ABSOLUTE BASOPHIL / ABSOLUTE EOSINOPHIL / ABSOLUTE LYMPHOCYTE / ABSOLUTE MONOCYTE / ABSOLUTE SEGMENTED NEUTROPHIL / BASOPHIL / EOSINOPHIL / ERYTHROCYTE COUNT / HEMATOCRIT / HEMOGLOBIN / LEUKOCYTE COUNT / LYMPHOCYTE / MEAN CORPUSCULAR HEMOGLOBIN / MEAN CORPUSCULAR HEMOGLOBIN CONCENTRATION / MEAN CORPUSCULAR VOLUME / MONOCYTE / NEUTROPHIL / NUCLEATED RED BLOOD CELLS / PLATELET COUNT: tissue Blood; for ALANINE AMINOTRANSFERASE / ALBUMIN / ALKALINE PHOSPHATASE / ASPARTATE AMINOTRANSFERASE / BLOOD UREA NITROGEN / CARBON DIOXIDE / CHLORIDE / CHOLESTEROL / CREATINE PHOSPHOKINASE / CREATININE / GLUCOSE / LACTATE DEHYDROGENASE / LIPASE / PHOSPHORUS / POTASSIUM / SODIUM / TOTAL BILIRUBIN / TOTAL PROTEIN / URIC ACID: tissue Plasma
[1] = 0 mg/kg, 72 h, dose level Control, time 3 day, vehicle 100 % SALINE
[2] = 0 mg/kg, 120 h, dose level Control, time 5 day, vehicle 10 % DMSO/SALINE
[3] = 0 mg/kg, 120 h, dose level Control, time 5 day, vehicle 100 % SALINE
[4] = 0 mg/kg, […], dose level Control, time 14 day, vehicle 100 % SALINE
[5] = 4 mg/kg, 120 h, dose level High, time 5 day, vehicle 10 % DMSO/SALINE

CC(=O)[C@]1(O)Cc2c(O)c3c(c(O)c2[C@@H](O[C@H]2C[C@H](N)[C@H](O)[C@H](C)O2)C1)C(=O)c1ccccc1C3=O [IDARUBICIN]
ABSOLUTE BASOPHIL [1]: 0 CELLS/uL
ABSOLUTE EOSINOPHIL [1]: 247.67 CELLS/uL
ABSOLUTE LYMPHOCYTE [1]: 13190.83 CELLS/uL
ABSOLUTE MONOCYTE [1]: 307.67 CELLS/uL
ABSOLUTE SEGMENTED NEUTROPHIL [1]: 1220.5 CELLS/uL
BASOPHIL [1]: 0%
EOSINOPHIL [1]: 1.67%
ERYTHROCYTE COUNT [1]: 5.47 x10E6/uL
HEMATOCRIT [1]: 33.98%
HEMOGLOBIN [1]: 12.65 G/DL
LEUKOCYTE COUNT [1]: 14.97 x10E3/uL
LYMPHOCYTE [1]: 88.17%
MEAN CORPUSCULAR HEMOGLOBIN [1]: 23.17 pg
MEAN CORPUSCULAR HEMOGLOBIN CONCENTRATION [1]: 37.23 G/DL
MEAN CORPUSCULAR VOLUME [1]: 62.25 fL
MONOCYTE [1]: 2%
NEUTROPHIL [1]: 8.17%
NUCLEATED RED BLOOD CELLS [1]: 0 /100WBC
PLATELET COUNT [1]: 1307.17 x10E3/uL
ALANINE AMINOTRANSFERASE [1]: 39.67 u/L
ALBUMIN [1]: 4.08 G/DL
ALKALINE PHOSPHATASE [1]: 383.17 u/L
ASPARTATE AMINOTRANSFERASE [1]: 88.83 u/L
BLOOD UREA NITROGEN [1]: 18.5 mg/dL
CARBON DIOXIDE [1]: 27.5 mmol/L
CHLORIDE [1]: 103 MEQ/L
CHOLESTEROL [1]: 67.33 mg/dL
CREATINE PHOSPHOKINASE [1]: 414.67 u/L
CREATININE [1]: 0.19 mg/dL
GLUCOSE [1]: 149.33 mg/dL
LACTATE DEHYDROGENASE [1]: 536.83 u/L
LIPASE [1]: 8.83 u/L
PHOSPHORUS [1]: 11.13 mg/dL
POTASSIUM [1]: 6.23 MEQ/L
SODIUM [1]: 144.42 MEQ/L
TOTAL BILIRUBIN [1]: 0.18 mg/dL
TOTAL PROTEIN [1]: 5.57 G/DL
URIC ACID [1]: 1.23 mg/dL
BASOPHIL [2]: 0.28%
EOSINOPHIL [2]: 0.55%
ERYTHROCYTE COUNT [2]: 7.09 x10E6/uL
HEMATOCRIT [2]: 45.85%
HEMOGLOBIN [2]: 14.93 G/DL
LEUKOCYTE COUNT [2]: 7.4 x10E3/uL
LYMPHOCYTE [2]: 84.22%
MEAN CORPUSCULAR HEMOGLOBIN [2]: 21.05 pg
MEAN CORPUSCULAR HEMOGLOBIN CONCENTRATION [2]: 32.5 G/DL
MEAN CORPUSCULAR VOLUME [2]: 64.72 fL
MONOCYTE [2]: 1.4%
NEUTROPHIL [2]: 12.45%
PLATELET COUNT [2]: 1476.75 x10E3/uL
ABSOLUTE SEGMENTED NEUTROPHIL [3]: 1104.67 CELLS/uL
BASOPHIL [3]: 1.05% and 0%
EOSINOPHIL [3]: 0.23% and 1%
ERYTHROCYTE COUNT [3]: 6.68 x10E6/uL and 5.73 x10E6/uL
HEMATOCRIT [3]: 42.27% and 36.85%
HEMOGLOBIN [3]: 13 G/DL and 13.67 G/DL
LEUKOCYTE COUNT [3]: 19.36 x10E3/uL and 15.13 x10E3/uL
LYMPHOCYTE [3]: 62.82% and 89.5%
MEAN CORPUSCULAR HEMOGLOBIN [3]: 19.43 pg and 23.87 pg
MEAN CORPUSCULAR HEMOGLOBIN CONCENTRATION [3]: 30.68 G/DL and 37.1 G/DL
MEAN CORPUSCULAR VOLUME [3]: 63.25 fL and 64.33 fL
MONOCYTE [3]: 3.45% and 2.33%
NUCLEATED RED BLOOD CELLS [3]: 0.17 /100WBC
PLATELET COUNT [3]: 1275.5 x10E3/uL and 1266 x10E3/uL
ALANINE AMINOTRANSFERASE [2]: 21.25 u/L
ALBUMIN [2]: 4.28 G/DL
ALKALINE PHOSPHATASE [2]: 337.5 u/L
ASPARTATE AMINOTRANSFERASE [2]: 87.25 u/L
BLOOD UREA NITROGEN [2]: 13 mg/dL
CARBON DIOXIDE [2]: 27 mmol/L
CHLORIDE [2]: 106.75 MEQ/L
CHOLESTEROL [2]: 54.5 mg/dL
CREATINE PHOSPHOKINASE [2]: 424.75 u/L
CREATININE [2]: 0.47 mg/dL
GLUCOSE [2]: 135.75 mg/dL
LACTATE DEHYDROGENASE [2]: 200.25 u/L
LIPASE [2]: 9 u/L
PHOSPHORUS [2]: 11.62 mg/dL
POTASSIUM [2]: 5.58 MEQ/L
SODIUM [2]: 150.5 MEQ/L
TOTAL BILIRUBIN [2]: 0.25 mg/dL
TOTAL PROTEIN [2]: 6.33 G/DL
URIC ACID [2]: 1.75 mg/dL
ALANINE AMINOTRANSFERASE [3]: 62.75 u/L and 49.17 u/L
ALBUMIN [3]: 3.2 G/DL and 4.22 G/DL
ALKALINE PHOSPHATASE [3]: 320.75 u/L and 352.67 u/L
ASPARTATE AMINOTRANSFERASE [3]: 112.25 u/L and 95.17 u/L
BLOOD UREA NITROGEN [3]: 14.25 mg/dL and 18.83 mg/dL
CARBON DIOXIDE [3]: 36.25 mmol/L and 25.67 mmol/L
CHLORIDE [3]: 106.25 MEQ/L and 102.67 MEQ/L
CHOLESTEROL [3]: 63.5 mg/dL and 66.83 mg/dL
CREATINE PHOSPHOKINASE [3]: 757.75 u/L and 550.33 u/L
CREATININE [3]: 0.23 mg/dL
GLUCOSE [3]: 175.5 mg/dL and 186.17 mg/dL
LACTATE DEHYDROGENASE [3]: 205.25 u/L and 471.33 u/L
PHOSPHORUS [3]: 11.35 mg/dL and 12.3 mg/dL
POTASSIUM [3]: 6.7 MEQ/L and 6.35 MEQ/L
SODIUM [3]: 151.25 MEQ/L and 143.57 MEQ/L
TOTAL BILIRUBIN [3]: 0.2 mg/dL and 0.18 mg/dL
TOTAL PROTEIN [3]: 5.78 G/DL and 6.05 G/DL
URIC ACID [3]: 1.23 mg/dL and 2 mg/dL
ABSOLUTE BASOPHIL [4]: 400 cells/µL
ABSOLUTE EOSINOPHIL [4]: 46.7 cells/µL
ABSOLUTE LYMPHOCYTE [4]: 18600 cells/µL
ABSOLUTE MONOCYTE [4]: 760 cells/µL
BASOPHIL [4]: 1.73%
EOSINOPHIL [4]: 0.2%
ERYTHROCYTE COUNT [4]: 7.04 x10E6/uL
HEMATOCRIT [4]: 41.83%
HEMOGLOBIN [4]: 13.07 G/DL
LEUKOCYTE COUNT [4]: 24.9 x10E3/uL
LYMPHOCYTE [4]: 74.43%
MEAN CORPUSCULAR HEMOGLOBIN [4]: 18.63 pg
MEAN CORPUSCULAR HEMOGLOBIN CONCENTRATION [4]: 31.33 G/DL
MEAN CORPUSCULAR VOLUME [4]: 59.43 fL
MONOCYTE [4]: 3.13%
NEUTROPHIL [4]: 18.97%
PLATELET COUNT [4]: 1314.33 x10E3/uL
ALANINE AMINOTRANSFERASE [4]: 42.67 u/L
ALBUMIN [4]: 3.6 G/DL
ALKALINE PHOSPHATASE [4]: 298 u/L
ASPARTATE AMINOTRANSFERASE [4]: 67.33 u/L
BLOOD UREA NITROGEN [4]: 14.33 mg/dL
CARBON DIOXIDE [4]: 41.67 mmol/L
CHLORIDE [4]: 102.67 MEQ/L
CHOLESTEROL [4]: 62.67 mg/dL
CREATINE PHOSPHOKINASE [4]: 338.67 u/L
CREATININE [4]: 0.7 mg/dL
GLUCOSE [4]: 147.33 mg/dL
LACTATE DEHYDROGENASE [4]: 94.33 u/L
LIPASE [4]: 80 u/L
PHOSPHORUS [4]: 9.6 mg/dL
POTASSIUM [4]: 6.67 MEQ/L
SODIUM [4]: 148 MEQ/L
TOTAL BILIRUBIN [4]: 0.2 mg/dL
TOTAL PROTEIN [4]: 6.67 G/DL
URIC ACID [4]: 1.03 mg/dL
BASOPHIL [5]: 0.8%
EOSINOPHIL [5]: 2.95%
ERYTHROCYTE COUNT [5]: 7.46 x10E6/uL
HEMATOCRIT [5]: 47.3%
HEMOGLOBIN [5]: 15.42 G/DL
LEUKOCYTE COUNT [5]: 0.0975 x10E3/uL
LYMPHOCYTE [5]: 69%
MEAN CORPUSCULAR HEMOGLOBIN [5]: 20.73 pg
MEAN CORPUSCULAR HEMOGLOBIN CONCENTRATION [5]: 32.67 G/DL
MEAN CORPUSCULAR VOLUME [5]: 63.45 fL
MONOCYTE [5]: 1.3%
NEUTROPHIL [5]: 23.9%
PLATELET COUNT [5]: 879.25 x10E3/uL
ALANINE AMINOTRANSFERASE [5]: 11.75 u/L
ALBUMIN [5]: 2.88 G/DL
ALKALINE PHOSPHATASE [5]: 156 u/L
ASPARTATE AMINOTRANSFERASE [5]: 63.5 u/L
BLOOD UREA NITROGEN [5]: 18 mg/dL
CARBON DIOXIDE [5]: 25 mmol/L
CHLORIDE [5]: 112 MEQ/L
CHOLESTEROL [5]: 152.75 mg/dL
CREATINE PHOSPHOKINASE [5]: 475.25 u/L
CREATININE [5]: 0.5 mg/dL
GLUCOSE [5]: 116.5 mg/dL
LACTATE DEHYDROGENASE [5]: 183.5 u/L
LIPASE [5]: 13 u/L
PHOSPHORUS [5]: 9.47 mg/dL
POTASSIUM [5]: 5.03 MEQ/L
SODIUM [5]: 151 MEQ/L
TOTAL BILIRUBIN [5]: 0.2 mg/dL
TOTAL PROTEIN [5]: 4.57 G/DL
URIC ACID [5]: 1.45 mg/dL
